Where “and” joins values, the source holds several entries; their conditions need not be identical. Equal entries are not always repeated. Calls of active or inactive are those of the source.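 Rule for the calls: active = compounds giving half or more protection of infected cells from virus-caused growth loss, again on retest; inactive = the rest.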
Test system: CEM cells HIV-1 protection, formazan growth assay
Experiment: NCI AIDS Antiviral Assay
Conditions: for IC50: measured here: growth of uninfected CEM cells
How it was run: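 Five concentrations of each compound were applied to infected and uninfected human CEM cells. Protection from HIV-1 was judged from growth measured with a soluble formazan assay.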

## CC(=O)Nc1cc2nc3n(c2cc1C)CCC3OC(C)=O (stereo unspecified)
  EC50: > 200 µM
  IC50: > 200 µM

## Cc1cc(=O)n2c(cc3cccccc32)n1
  outcome: inactive

## CC12CC3C(CC1SCC(=O)O2)C3(C)C (stereo unspecified)
  EC50: > 302 µM
  IC50: > 302 µM

## COc1cc2nncc(SCc3ccc(Cl)c(Cl)c3)c2cc1OC
  EC50: > 39.8 µM
  IC50: 4.57 µM

## Cc1nc2cnc(Nc3ccccc3)nc2n(-c2ccccc2)c1=O
  EC50: > 200 µM
  IC50: > 200 µM

## Cc1cc2c(C(C)C)c(O)c(O)c(C=Nc3ccc(Cl)cc3)c2c(O)c1-c1c(C)cc2c(C(C)C)c(O)c(O)c(C=Nc3ccc(Cl)cc3)c2c1O
  EC50: > 200 µM
  IC50: 11.7 µM

## O=C1CSC(/C(=C/c2ccccc2)c2nc3ccccc3[nH]2)=N1
  EC50: 21.9 µM
  IC50: 22.4 µM

## COc1ccc(COCC[C@H](C)OC2OC(CO)C(O)C(O)C2O)cc1 (stereo partly specified)
  EC50: > 200 µM
  IC50: > 200 µM

## CN(C)c1ccc(/C=N/NS(=O)(=O)c2ccc(N)cc2)cc1
  EC50: > 214 µM
  IC50: > 214 µM

## O=C(CCNNC(=O)c1ccncc1)NCc1ccccc1
  EC50: > 200 µM
  IC50: > 200 µM

## COc1cc2c(c3oc4c(c(=O)c13)CCCC4)CCC(C)(C)O2
  EC50: > 56.2 µM
  IC50: 23.4 µM

## CC(=O)[C@@]1(c2ccccc2)N(C(=O)c2ccccc2)[C@@]1(C)C(=O)c1ccccc1
  EC50: > 646 µM
  IC50: 562 µM

## C=CCNc1nc2c(s1)CCc1cc(OC)c(OC)cc1-2
  EC50: > 24 µM
  IC50: > 24 µM

## CC[C@@H](C)[C@H]([C@H](CC(=O)N1CCC[C@@H]1[C@@H](OC)[C@H](C)C(=O)N[C@H](Cc1ccccc1)c1nccs1)OC)N(C)C(=O)[C@H](NC(=O)[C@@H](C(C)C)N(C)C)C(C)C
  EC50: > 316 µM
  IC50: 0.1 µM

## COc1cc2c(cc1OC)C1c3ccccc3CCN1CCC2 (stereo unspecified)
  EC50: > 200 µM
  IC50: > 200 µM

## O=[N+]([O-])C(=C/c1cccs1)/C(=C\c1cccs1)[N+](=O)[O-]
  EC50: > 200 µM
  IC50: 1.55 µM

## CC(=N/NC(=S)N1CCCCC1)/C(=N\NC(=S)N1CCCCC1)c1ccccc1
  EC50: > 200 µM
  IC50: 3.55 µM

## COc1cc(C(=O)C/C(CCC(=O)Nc2ccccc2[N+](=O)[O-])=N\NC(=O)CC#N)ccc1O
  EC50: > 537 µM
  IC50: 224 µM

## NC(=O)C(=CN1C(=O)/C(=C/c2ccc([N+](=O)[O-])cc2)SC1=S)C(N)=O
  EC50: > 200 µM
  IC50: 30.2 µM

## Cc1ccc(NC(=O)CC(=O)n2nc(C)c(N=Nc3ccc(S(=O)(=O)CCOS(=O)(=O)O)cc3)c2C)cc1
  EC50: > 200 µM
  IC50: > 200 µM

## CCOC(=O)C1=C(O)c2ccccc2S(=O)(=O)N1C (tested in a mixture with another compound)
  EC50: > 123 µM
  IC50: 110 µM

## COCn1cnc2c(=O)n(-c3ccc(C)cc3)c(=S)n(-c3ccc(C)cc3)c21
  EC50: > 200 µM
  IC50: 138 µM

## CCOC(=O)C(=O)CC(=O)C1=C(c2ccccc2OC)CC(c2cccs2)=CC1=O
  EC50: > 200 µM
  IC50: 32.4 µM

## NC(=O)NNC(=O)CCn1[nH]c(=O)c(Cl)c(Cl)c1=O
  outcome: inactive

## C[N+](C)(C)CCCCCCCCCC[N+](C)(C)C
  EC50: > 603 µM
  IC50: > 603 µM

## COc1cc2c(c(Oc3ccc(C)cc3)c1)CN(C)CC2
  EC50: > 200 µM
  IC50: 75.9 µM

## CC12C(=O)N(C3CCC(=O)NC3=O)C(=O)C1C1CCC2C1 (stereo unspecified)
  EC50: > 200 µM
  IC50: > 200 µM

## CN(C)CCNC(=O)c1ccccc1Nc1c(Cl)cccc1Cl
  EC50: > 200 µM
  IC50: 39.8 µM

## O=C(CCCCCCCCC(=O)N1C(=O)CC(=O)N(c2ccc(Cl)cc2)C1=S)N1C(=O)CC(=O)N(c2ccc(Cl)cc2)C1=S
  EC50: > 200 µM
  IC50: 81.3 µM

## COc1ccc2c(c1)OC1(OCCO1)[C@@H]1C2CC[C@@]2(C)C1CCC21OCCO1 (stereo partly specified)
  EC50: > 18.6 µM
  IC50: > 18.6 µM

## Nc1ncnc2c1ncn2CC1OCC(CO)O1 (stereo unspecified)
  EC50: > 3090 µM
  IC50: 2750 µM and 2340 µM

## CCOC(=O)C(=O)Nc1c(C)cccc1C(C)(C)C
  EC50: > 135 µM
  IC50: > 135 µM

## COC(=O)C12CC3CC(CC(NC(=O)C(Cc4ccccc4)NC(=O)CN)(C3)C1)C2 (stereo unspecified)
  EC50: > 200 µM
  IC50: 110 µM

## CC(C)CCCC(C)[C@H]1CCC2C3CC=C4C[C@@H](OP(=O)(O)OCCC=C(c5cc(Cl)c(O)c(C(=O)O)c5)c5cc(Cl)c(O)c(C(=O)O)c5)CC[C@]4(C)C3CC[C@@]21C (stereo partly specified)
  EC50: > 100 µM
  IC50: 38.9 µM

## OCC1CC2CC1C1(C2)OCCO1 (stereo unspecified)
  outcome: inactive

## O=C1C=CC(=O)c2c(O)c(CO)c(CO)c(O)c21
  outcome: inactive

## CC1(C)OC(=O)C(=C2CC(c3ccccc3)c3ccccc32)C(=O)O1 (stereo unspecified)
  outcome: inactive

## COc1cc(Br)c(C=Nc2cccc3cc(OC)c(OC)cc23)cc1OC
  EC50: > 31.6 µM
  IC50: > 31.6 µM

## CCOC(=O)n1c(=O)nc2c3c(ncn21)Oc1c(c(-c2ccccc2)nn1-c1ccccc1)C3c1ccc(Cl)cc1 (stereo unspecified)
  EC50: > 200 µM
  IC50: 2.29 µM

## COc1cc2c(ccc3c4cc(OC)c(OC)cc4c[n+](C)c23)cc1O
  EC50: > 324 µM
  IC50: 1.48 µM

## CCN(CC)CCC1CCCCN1CC(=O)N1c2ccccc2NC(=O)CC1C (stereo unspecified)
  EC50: > 200 µM
  IC50: > 200 µM

## CC1CC(C)(C)OB(OC(C)CC(C)(C)OB2OC(C)CC(C)(C)O2)O1 (stereo unspecified)
  EC50: > 200 µM
  IC50: > 200 µM

## Cc1ccc(C2NC(=O)N3C(c4ccc(C)cc4)NC(=O)N23)cc1 (stereo unspecified)
  EC50: > 200 µM
  IC50: 30.2 µM

— PubChem BioAssay AID179 (DTP/NCI, 2004)
